Tests used:
[1] = test system: hiPSC-CMs (iCell2 Cardiomyocytes) 2D monolayers; experiment: Membrane potential (action potential) recordings with FluoVolt voltage-sensitive dye on the CellOPTIQ platform; format: cell-based, human; settings: for activity at 1 µM / activity at 3 µM / activity at 10 µM: Homo sapiens, Cardiomyocyte, 0.5 h, 30 min, delta over DMSO 0.1%
Method in brief: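 iCell2 hiPSC-CM monolayers (50,000 cells/well on fibronectin or Matrix Plus, days 5–6) were loaded with FluoVolt (1:1000, 20 min, 37 °C) and imaged at 37 °C with 470 nm excitation and 510–560 nm emission sampled at 10 kHz. Spontaneous action potentials were recorded for 10 s at baseline and 30 min after drug, with one of four concentrations per well (n = 8).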

[2] = test system: hiPSC-CMs (iCell2 Cardiomyocytes) 2D monolayers; experiment: Contractility measurements using video imaging (ContractilityTool / MUSCLEMOTION); format: cell-based, human; settings: Homo sapiens, Cardiomyocyte, 0.5 h, 30 min, delta over DMSO 0.1%
Method in brief: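 Monolayers on fibronectin or Matrix Plus coating, tested on days 5–6 in serum-free medium. Four concentrations, one per well, n = 8, with vehicle control.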

[3] = listed in Supplementary Table S1; no reference given; cited from earlier work
[4] = FM monolayer, read-out: APD30 (%DD)
[5] = FM monolayer, read-out: APD90 (%DD)
[6] = FM monolayer, read-out: CL (%DD)
[7] = FM monolayer, read-out: Trise (%DD)
[8] = MM monolayer, read-out: APD30 (%DD)
[9] = MM monolayer, read-out: APD90 (%DD)
[10] = MM monolayer, read-out: CL (%DD)
[11] = MM monolayer, read-out: Trise (%DD)
[12] = FM monolayer, read-out: CtAmp (%DD)
[13] = FM monolayer, read-out: CtD50 (%DD)
[14] = MM monolayer, read-out: CtAmp (%DD)
[15] = MM monolayer, read-out: CtD50 (%DD)

Question: For CC(CCc1ccc(O)cc1)NCCc1ccc(O)c(O)c1 (stereo not drawn) [Dobutamine], which activity at 1 µM [1, 4] is on record?
Answer: 84 ± 1.4%

Question: What about the activity at 1 µM [1, 5] of the same compound?
Answer: 89 ± 0.9%

Question: And the activity at 1 µM [1, 6]?
Answer: 76 ± 0.4%

Question: And the activity at 1 µM [1, 7]?
Answer: 86 ± 5.3%

Question: What about the activity at 3 µM [1, 4] of the same compound?
Answer: 77 ± 1.5%

Question: And the activity at 3 µM [1, 5]?
Answer: 86 ± 0.8%

Question: And the activity at 3 µM [1, 6]?
Answer: 77 ± 0.9%

Question: What about the activity at 3 µM [1, 7] of the same compound?
Answer: 100 ± 18.9%

Question: What about the activity at 10 µM [1, 4] of the same compound?
Answer: 90 ± 2%

Question: What about the activity at 10 µM [1, 5] of the same compound?
Answer: 91 ± 1.9%

Question: What about the activity at 10 µM [1, 6] of the same compound?
Answer: 81 ± 0.8%

Question: And the activity at 10 µM [1, 7]?
Answer: 131 ± 21.5%

Question: What about the activity at 1 µM [1, 8] of the same compound?
Answer: 89 ± 1.2%

Question: And the activity at 1 µM [1, 9]?
Answer: 91 ± 1%

Question: And the activity at 1 µM [1, 10]?
Answer: 75 ± 0.7%

Question: And the activity at 1 µM [1, 11]?
Answer: 91 ± 7.1%

Question: And the activity at 3 µM [1, 8]?
Answer: 85 ± 1.3%

Question: What about the activity at 3 µM [1, 9] of the same compound?
Answer: 91 ± 0.9%

Question: What about the activity at 3 µM [1, 10] of the same compound?
Answer: 76 ± 0.5%

Question: And the activity at 3 µM [1, 11]?
Answer: 109 ± 14.1%

Question: And the activity at 10 µM [1, 8]?
Answer: 86 ± 1.9%

Question: And the activity at 10 µM [1, 9]?
Answer: 96 ± 0.9%

Question: And the activity at 10 µM [1, 10]?
Answer: 81 ± 0.6%

Question: And the activity at 10 µM [1, 11]?
Answer: 146 ± 13.9%

Question: And the “effect on cycle length (in words)” value ([1]; both FM and MM monolayers, concentration not given)?
Answer: concentration-dependent decrease

Question: What about the “electrical activity of the monolayers at higher concentrations” value ([1]; higher concentrations, FM and MM) of the same compound?
Answer: electrically quiescent

Question: What about the activity at 1 µM [2, 12] of the same compound?
Answer: 93 ± 10.7%

Question: And the activity at 1 µM [2, 13]?
Answer: 79 ± 1.5%

Question: And the activity at 3 µM [2, 12]?
Answer: 99 ± 8.4%

Question: And the activity at 3 µM [2, 13]?
Answer: 75 ± 2%

Question: And the activity at 10 µM [2, 12]?
Answer: 82 ± 3.2%

Question: And the activity at 10 µM [2, 13]?
Answer: 82 ± 2.2%

Question: And the activity at 1 µM [2, 14]?
Answer: 101 ± 11.6%

Question: What about the activity at 1 µM [2, 15] of the same compound?
Answer: 82 ± 1.1%

Question: What about the activity at 3 µM [2, 14] of the same compound?
Answer: 89 ± 6.3%

Question: What about the activity at 3 µM [2, 15] of the same compound?
Answer: 78 ± 1.2%

Question: And the activity at 10 µM [2, 14]?
Answer: 98 ± 7.5%

Question: What about the activity at 10 µM [2, 15] of the same compound?
Answer: 77 ± 1.3%

Question: What about the “Free Cmax” value [3] of the same compound?
Answer: 80 nM
